pIC50: −log10 of the molar value.
Legend:
DGKζ = DGKζ (Homo sapiens (Human), UniProt Q13574); test: Biochemical DGK IC50 assay (ADP-Glo, lipid micelle substrate), DGKζ; conditions: full length DGKζ 0.5 nM, ATP 140 μM, DAG 80 μM
Experimental: (§1) Enzymatic reactions of DGKζ, DGKα and DGKδ were performed using ADP-Glo assay with lipid micelle substrate. […] Full length DGKα (D21-10BG, SignalChem) and full length DGKδ (D23-10G, SignalChem) were purchased. Lipid micelle was prepared by dissolving DAG (Sigma, 317505-10MG) and PS (Sigma, P7769-100MG) with chloroform which was furtherly removed by rotary evaporation. The resulted product was resuspended in buffer containing 25 mM HEPES pH 7.0, 0.5 mM EDTA and 160 mM Octyl P-D glucopyranoside by vigorous mixing and ultrasonic (IID, Scientz).
(§2) The inhibition activities testing for the compound disclosed herein were carried out at room temperature in assay buffer containing 50 mM HEPES, 10 mM MgCl2, 0.01% BSA, 0.1 mM Na3VO4, 0.005% Tween-20 and 0.01 mM CaCl2. Compounds in DMSO were dispensed into wells of a black 384 well plate (Corning 4514) using D300e digital dispenser (Tecan). […] 3 μL 2× enzyme solution was added to wells. […] After 1 hour reaction, 5 μL ADP-Glo reagent (Promga V9101) was added and incubated for 40 minutes. 10 μL Kinase Detection reagent was added and incubated for 30 minutes. Luminescence was measured on a microplate reader (PHERAstar FSX, BMG labtech). The IC50s are calculated based on inhibition of enzyme activity in the presence of increasing concentrations of compounds.
Human His-TEV-DGK-zeta-pFastBac1 and human baculovirus samples was generated using the Bac-to-Bac baculovirus expression system (Invitrogen) according to the manufacturer's protocol. The DNA used for expression of DGK-zeta, have SEQ ID Nos: 1. Baculovirus amplification was achieved using infected SF9 cells at 1:2000 virus/cells ratios, and grown for 96 hours at 27° C. post-transfected.
The expression scaled up for each protein was carried out in the […] from CORNING. 4 L of 3×10^6 cells/mL Sf9 cells (Expression System, Invitrogen) grown in SF900™ II SFM insect medium (Expression System) was infected with virus stock at 1:200 virus/cells ratio, and grown for 48 hours at 27° C. post-transfection. The infected cell culture was harvested by centrifugation at 6000 rpm for 15 min 4° C. in a SORVALL LYNX6000 centrifuge. The cell pellets were stored at −80° C.
Full length human DGKζ produced as described above, was purified from Sf9 baculovirus-infected insect cell paste. The cells were lysed using sonication method, and the lysates were clarified by centrifugation.

DGKα = DGKα (Homo sapiens (Human), UniProt P23743); test: Biochemical DGK IC50 assay (ADP-Glo, lipid micelle substrate), DGKα; conditions: full length DGKα […], ATP 140 μM, DAG 80 μM; further: full length DGKα 7.5 nM
Experimental: as §1, §2

DGKζ, sequence (Q13574 other isoform, or with tags, fused parts or gaps): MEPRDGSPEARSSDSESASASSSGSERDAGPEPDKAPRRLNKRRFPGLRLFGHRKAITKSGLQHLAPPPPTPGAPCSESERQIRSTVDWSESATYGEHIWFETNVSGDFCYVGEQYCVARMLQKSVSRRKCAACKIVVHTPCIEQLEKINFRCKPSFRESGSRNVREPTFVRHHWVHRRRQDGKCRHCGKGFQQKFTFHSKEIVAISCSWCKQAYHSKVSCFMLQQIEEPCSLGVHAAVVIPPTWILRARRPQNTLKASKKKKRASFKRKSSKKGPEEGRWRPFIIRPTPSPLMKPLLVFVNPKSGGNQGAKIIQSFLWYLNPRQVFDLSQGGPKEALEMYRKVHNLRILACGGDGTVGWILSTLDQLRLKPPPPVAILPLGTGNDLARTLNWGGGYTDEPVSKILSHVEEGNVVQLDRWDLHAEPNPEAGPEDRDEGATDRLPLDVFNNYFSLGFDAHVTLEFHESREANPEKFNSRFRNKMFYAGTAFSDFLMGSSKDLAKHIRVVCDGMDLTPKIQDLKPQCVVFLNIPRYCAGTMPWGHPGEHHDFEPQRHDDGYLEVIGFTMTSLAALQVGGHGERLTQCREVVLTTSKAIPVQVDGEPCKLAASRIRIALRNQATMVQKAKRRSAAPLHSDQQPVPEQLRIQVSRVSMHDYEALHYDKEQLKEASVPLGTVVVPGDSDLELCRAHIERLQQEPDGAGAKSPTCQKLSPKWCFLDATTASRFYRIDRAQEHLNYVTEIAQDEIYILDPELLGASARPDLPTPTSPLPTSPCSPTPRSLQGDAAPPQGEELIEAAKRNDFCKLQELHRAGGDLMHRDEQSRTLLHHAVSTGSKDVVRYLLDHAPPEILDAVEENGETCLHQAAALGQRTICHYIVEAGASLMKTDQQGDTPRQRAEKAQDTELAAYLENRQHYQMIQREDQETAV
DGKα, sequence (P23743 whole entry): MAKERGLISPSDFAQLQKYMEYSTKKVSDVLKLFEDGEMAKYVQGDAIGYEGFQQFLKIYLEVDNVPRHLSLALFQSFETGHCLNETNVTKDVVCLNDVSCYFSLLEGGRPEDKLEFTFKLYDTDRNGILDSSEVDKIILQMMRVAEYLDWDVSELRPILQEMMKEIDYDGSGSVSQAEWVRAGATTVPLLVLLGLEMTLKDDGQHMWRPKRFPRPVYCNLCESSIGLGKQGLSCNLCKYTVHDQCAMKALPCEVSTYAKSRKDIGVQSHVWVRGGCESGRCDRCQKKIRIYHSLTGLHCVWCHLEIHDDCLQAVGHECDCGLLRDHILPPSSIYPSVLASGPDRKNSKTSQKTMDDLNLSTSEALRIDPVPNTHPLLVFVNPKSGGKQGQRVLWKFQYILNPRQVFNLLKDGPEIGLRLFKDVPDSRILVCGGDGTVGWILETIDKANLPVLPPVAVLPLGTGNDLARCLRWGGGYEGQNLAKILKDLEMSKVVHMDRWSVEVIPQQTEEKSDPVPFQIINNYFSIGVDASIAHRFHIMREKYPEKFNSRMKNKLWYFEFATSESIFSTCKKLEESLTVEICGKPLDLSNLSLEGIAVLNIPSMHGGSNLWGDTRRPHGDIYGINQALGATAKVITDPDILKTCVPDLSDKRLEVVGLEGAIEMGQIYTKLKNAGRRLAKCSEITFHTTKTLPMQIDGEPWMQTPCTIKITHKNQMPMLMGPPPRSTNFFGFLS

| SMILES | pIC50 (DGKζ) | pIC50 (DGKα) |
| --- | --- | --- |
| CC[C@H]1CN(C(C)c2ccc(C3CC3)nc2)[C@H](CC)CN1c1c(F)c(=O)n(C)c2cn(CC#N)nc12 (single isomer, unassigned) [Compound A48b] | 6.97 | 6.10 |
| CC[C@H]1CN(C(C)c2ccc(OC(C)C)cn2)[C@H](CC)CN1c1cc(=O)n(C)c2cn(CC#N)nc12 (single isomer, unassigned) [Compound A51b] | 5.74 | 6.47 |
| CC[C@H]1CN(C(C)c2ccc(C)c(C)n2)[C@H](CC)CN1c1cc(=O)n(C)c2cn(CC#N)nc12 (single isomer, unassigned) [Compound A54a] | 7.48 | 7.12 |
| CC[C@H]1CN(C(C)c2ccc(C)c(C)n2)[C@H](CC)CN1c1cc(=O)n(C)c2cn(CC#N)nc12 (single isomer, unassigned) [Compound A54b] | 5.72 | 5.72 |
| CC[C@H]1CN(C(C)c2ccc3c(c2)OCO3)[C@H](CC)CN1c1cc(=O)n(C)c2cn(CC#N)nc12 (single isomer, unassigned) [Compound A68a] | 7.31 | 7.01 |
| CC[C@H]1CN(C(C)c2ccc3c(c2)OCO3)[C@H](CC)CN1c1cc(=O)n(C)c2cn(CC#N)nc12 (single isomer, unassigned) [Compound A68b] | 5.59 | 5.86 |
| CC[C@H]1CN(C(C)c2ccc3c(n2)OCO3)[C@H](CC)CN1c1cc(=O)n(C)c2cn(CC#N)nc12 (single isomer, unassigned) [Compound A75a] | 6.86 | 7.13 |
| CC[C@H]1CN(C(C)c2ccc3c(n2)OCO3)[C@H](CC)CN1c1cc(=O)n(C)c2cn(CC#N)nc12 (single isomer, unassigned) [Compound A75b] | 5.30 | 5.95 |
| CC[C@H]1CN(C(C)c2ccc3ccnn3c2)[C@H](CC)CN1c1cc(=O)n(C)c2cn(CC#N)nc12 (single isomer, unassigned) [Compound A77a] | 7.27 | 6.75 |
| CC[C@H]1CN(C(C)c2ccc3ccnn3c2)[C@H](CC)CN1c1cc(=O)n(C)c2cn(CC#N)nc12 (single isomer, unassigned) [Compound A77b] | 6.07 | 6.13 |
| CC[C@H]1CN(C(C)c2ccn3ccnc3c2)[C@H](CC)CN1c1cc(=O)n(C)c2cn(CC#N)nc12 (single isomer, unassigned) [Compound A80a] | 6.03 | 6.85 |
| CC[C@H]1CN(C(C)c2ccn3ccnc3c2)[C@H](CC)CN1c1cc(=O)n(C)c2cn(CC#N)nc12 (single isomer, unassigned) [Compound A80b] | 5.16 | 5.52 |
| CC[C@H]1CN(C(C)c2ccc3nccn3c2)[C@H](CC)CN1c1cc(=O)n(C)c2cn(CC#N)nc12 (single isomer, unassigned) [Compound A82a] | 6.31 | 6.96 |
| CC[C@H]1CN(C(C)c2ccc3nccn3c2)[C@H](CC)CN1c1cc(=O)n(C)c2cn(CC#N)nc12 (single isomer, unassigned) [Compound A82b] | 5.07 | 5.52 |
| CC[C@H]1CN(C(C)c2ccc3cncn3c2)[C@H](CC)CN1c1cc(=O)n(C)c2cn(CC#N)nc12 (single isomer, unassigned) [Compound A83a] | 5.06 | 6.19 |
| CC[C@H]1CN(C(C)c2ccc3cncn3c2)[C@H](CC)CN1c1cc(=O)n(C)c2cn(CC#N)nc12 (single isomer, unassigned) [Compound A83b] | 5.74 | 7.05 |
| CC[C@H]1CN(C(C)c2ccc3ncoc3c2)[C@H](CC)CN1c1cc(=O)n(C)c2cn(CC#N)nc12 (single isomer, unassigned) [Compound A84a] | 7.37 | 7.17 |
| CC[C@H]1CN(C(C)c2ccc3ncoc3c2)[C@H](CC)CN1c1cc(=O)n(C)c2cn(CC#N)nc12 (single isomer, unassigned) [Compound A84b] | 5.50 | 5.93 |
| CC[C@@H]1CN(c2cc(=O)n(C)c3cn(CC#N)nc23)[C@@H](C)CN1[C@@H](C)c1ccc2ncoc2c1 (single isomer, unassigned) [Compound A85a] | 7.11 | 6.77 |

| SMILES | pIC50 (DGKζ) | pIC50 (DGKα) |
| --- | --- | --- |
| CC[C@@H]1CN(c2cc(=O)n(C)c3cn(CC#N)nc23)[C@@H](C)CN1[C@H](C)c1ccc2ncoc2c1 (single isomer, unassigned) [Compound A85b] | 5.46 | 5.69 |
| CC[C@H]1CN(C(C)c2ccc(NC(C)=O)c(O)c2F)[C@H](CC)CN1c1cc(=O)n(C)c2cn(CC#N)nc12 (single isomer, unassigned) [Compound A87a] | 5.55 | 5.70 |
| CC[C@H]1CN(C(C)c2ccc(NC(C)=O)c(O)c2F)[C@H](CC)CN1c1cc(=O)n(C)c2cn(CC#N)nc12 (single isomer, unassigned) [Compound A87b] | < 5.00 | 4.45 |
| CC[C@@H]1CN(c2cc(=O)n(C)c3cn(CC#N)nc23)[C@@H](C)CN1C(C)c1ccc2ncsc2c1 (single isomer, unassigned) [Compound A92a] | 8.04 | 6.97 |
| CC[C@@H]1CN(c2cc(=O)n(C)c3cn(CC#N)nc23)[C@@H](C)CN1C(C)c1ccc2ncsc2c1 (single isomer, unassigned) [Compound A92b] | 6.58 | 5.99 |
| CC[C@H]1CN(C(C)c2cnc3ncsc3c2)[C@H](CC)CN1c1cc(=O)n(C)c2cn(CC#N)nc12 (single isomer, unassigned) [Compound A98a] | 6.97 | 5.26 |
| CC[C@H]1CN(C(C)c2cnc3ncsc3c2)[C@H](CC)CN1c1cc(=O)n(C)c2cn(CC#N)nc12 (single isomer, unassigned) [Compound A98b] | 5.54 | 5.02 |
| CC[C@H]1CN(C(C)c2ccc3ncsc3n2)[C@H](CC)CN1c1cc(=O)n(C)c2cn(CC#N)nc12 (single isomer, unassigned) [Compound A99a] | 5.45 | 5.76 |
| CC[C@H]1CN(C(C)c2ccc3ncsc3n2)[C@H](CC)CN1c1cc(=O)n(C)c2cn(CC#N)nc12 (single isomer, unassigned) [Compound A99b] | 8.07 | 7.62 |
| CC[C@@H]1CN(c2cc(=O)n(C)c3cn(CC#N)nc23)[C@@H](C)CN1C(C)c1ccc2ncsc2n1 (single isomer, unassigned) [Compound A100a] | 7.34 | 7.07 |
| CC[C@@H]1CN(c2cc(=O)n(C)c3cn(CC#N)nc23)[C@@H](C)CN1C(C)c1ccc2ncsc2n1 (single isomer, unassigned) [Compound A100b] | 5.58 | 5.54 |
| CC[C@H]1CN(C(C)c2cc(F)c3ncsc3c2)[C@H](CC)CN1c1cc(=O)n(C)c2cn(CC#N)nc12 (single isomer, unassigned) [Compound A101a] | 7.72 | 5.58 |
| CC[C@H]1CN(C(C)c2cc(F)c3ncsc3c2)[C@H](CC)CN1c1cc(=O)n(C)c2cn(CC#N)nc12 (single isomer, unassigned) [Compound A101b] | 5.91 | 4.75 |
| CC[C@H]1CN(C(C)c2cc3scnc3cc2F)[C@H](CC)CN1c1cc(=O)n(C)c2cn(CC#N)nc12 (single isomer, unassigned) [Compound A103a] | 7.85 | 7.04 |
| CC[C@H]1CN(C(C)c2cc3scnc3cc2F)[C@H](CC)CN1c1cc(=O)n(C)c2cn(CC#N)nc12 (single isomer, unassigned) [Compound A103b] | 6.20 | 5.87 |
| CC[C@@H]1CN(c2cc(=O)n(C)c3cn(CC#N)nc23)[C@@H](C)CN1C(C)c1ccc2nc(C)sc2c1F (single isomer, unassigned) [Compound A104a] | 8.19 | 5.50 |
| CC[C@@H]1CN(c2cc(=O)n(C)c3cn(CC#N)nc23)[C@@H](C)CN1C(C)c1ccc2nc(C)sc2c1F (single isomer, unassigned) [Compound A104b] | 6.66 | 4.74 |
| CC[C@H]1CN(C(C)c2ccc3nsnc3c2)[C@H](CC)CN1c1cc(=O)n(C)c2cn(CC#N)nc12 (single isomer, unassigned) [Compound A106a] | 8.05 | 7.19 |
| CC[C@H]1CN(C(C)c2ccc3nsnc3c2)[C@H](CC)CN1c1cc(=O)n(C)c2cn(CC#N)nc12 (single isomer, unassigned) [Compound A106b] | 6.22 | 6.03 |

Source: patent US20250346597A1, “CONDENSED HETEROCYCLIC COMPOUNDS AS INHIBITOR OF DIACYLGLYCEROL KINASES” (BEONE MEDICINES I GMBH, priority 2023, published 2025)
